Reference: patent publication US7211246B2, “Compositions comprising oestrone-3-0-sulphamate and trail (TNF-related apoptosis inducing ligand)” (Sterix Limited, priority 2001, dated 2007)

T1: E1-STS (Homo sapiens, UniProt P08842)
T1 sequence (P08842 22-583): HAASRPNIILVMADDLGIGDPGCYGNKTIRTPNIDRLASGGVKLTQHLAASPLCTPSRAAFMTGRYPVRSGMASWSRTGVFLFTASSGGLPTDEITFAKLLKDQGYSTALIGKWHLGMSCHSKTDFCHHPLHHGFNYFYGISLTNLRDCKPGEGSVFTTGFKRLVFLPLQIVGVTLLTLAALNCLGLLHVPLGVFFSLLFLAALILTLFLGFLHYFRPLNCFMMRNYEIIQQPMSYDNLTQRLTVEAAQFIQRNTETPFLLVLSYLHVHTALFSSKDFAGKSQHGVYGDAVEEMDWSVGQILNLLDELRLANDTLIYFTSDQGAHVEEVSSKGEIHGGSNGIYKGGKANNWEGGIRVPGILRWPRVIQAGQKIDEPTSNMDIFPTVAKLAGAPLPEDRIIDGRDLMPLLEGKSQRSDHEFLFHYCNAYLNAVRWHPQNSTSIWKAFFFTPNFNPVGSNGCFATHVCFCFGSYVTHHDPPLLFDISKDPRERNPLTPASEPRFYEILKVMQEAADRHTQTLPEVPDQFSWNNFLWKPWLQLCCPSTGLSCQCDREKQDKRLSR

B1: TRAIL: Tumour necrosis factor (TNF) related apoptosis inducing ligand; recombinant human TRAIL used in the tests (protein, UniProt P50591 1-281, looked up)
Tumor necrosis factor ligand …: MAMMEVQGGPSLGQTCVLIVIFTVLLQSLCVAVTYVYFTNELKQMQDKYSKSGIACFLKEDDSYWDPNDEESMNSPCWQVKWQLRQLVRKMILRTSEETISTVQEKQQNISPLVRERGPQRVAAHITGTRGRSNTLSSPNSKNEKALGRKINSWESSRSGHSFLSNLHLRNGELVIHEKGFYYIYSQTYFRFQEEIKENTKNDKQMVQYIYKYTSYPDPILLMKSARNSCWSKDAEYGLYSIYQGGIFELKENDRIFVSVTNEHLIDMDHEASFFGAFLVG

Legend:
[1] = tested on: CAL51 cells; assay: Cell Titre 96 Aqueous One Solution cell proliferation assay, CAL51 cells; assay type: cell-based; conditions: 2 days; for cell death compared to treatment with compound alone: in combination with TRAIL (50 or 250 ng/ml)
Description: (§1) FIGS. 1A to 1C show effects of 2-MeOEMATE and 2-EtEMATE on TRAIL induced apoptosis in CAL51 and MCF-7 cells. Cell proliferation assays in which CAL51 cells or MCF7 cells were plated at a density of 5,000 in 96 well plates and treated with 0, 0.05, 0.5 or 5 μM MeoEMATE or 2-EtEMATE in the presence of 0, 50 or 250 ng/ml recombinant human TRAIL. Results are the mean of triplicates+/−S.D. and are expressed as a percentage of results for untreated cells.
(§2) Cell proliferation was measured using the Cell Titre 96 Aqueous One Solution Cell proliferation assay (Promega). This is a colorimetric method which determines cell viability and can therefore be used to measure the ability of drugs to cause cell death. The assay is performed by adding the cell proliferation reagent directly to the cells. Metabolically active cells convert the reagent to a coloured formazan product and the absorbance at 490 nm is measured 1–4 hrs after incubation at 37° C.
(§3) For the TRAIL co-operation experiments, CAL-51 of MCF-7 cells were plated at 5,000 cells per well in 96 well plates. CAL-51 cells were treated with 0, 0.05, 0.5 or 5 μM 2-MeOEMATE or 2-EtEMATE in the presence of 0, 50 or 250 ng/ml recombinant human TRAIL. MCF7 cells were treated with 5 μM 2-MeOEMATE or 2-EtEMATE in the presence or absence of 250 ng/ml recombinant human TRAIL. Cell proliferation was measured 2 days (CAL-51) or 1 day (MCF-7) after addition of drugs. Tests were performed in triplicate and data are means of triplicate results+/−S.D. and are expressed as a percentage of results obtained for untreated cells. Experiments on CAL-51 cells were performed 4 times for each compound and once for each compound on MCF-7 cells.

[2] = tested on: MCF-7 cells; assay: Cell Titre 96 Aqueous One Solution cell proliferation assay, MCF-7 cells; assay type: cell-based; conditions: 24 hrs
Description: as §1, §2, §3

[3] = tested on: DR5 mRNA; assay: RNAse protection assay, DR5 mRNA levels in Cal51 cells; assay type: cell-based, Human; conditions: 0.5 μM, between 24 and 48 hours
Description: (§4) RNAse protection assay showing DR5, DR4 and GAPDH mRNA levels at 0, 8, 16, 24 and 48 hours following treatment with 0.5 μM 2-MeOEMATE and 2-EtEMATE in Cal51 cells.
(§5) We investigated if the co-operation observed between TRAIL and 2-MeOEMATE or 2-EtEMATE to induce cell death in CAL51 cells was due to upregulation of DR4 and/or DR5 receptors by 2-MeOEMATE and 2-EtEMATE. We used RNAse protection assays to examine the levels of mRNAs for DR4 and DR5 following treatment of CAL51 cells with 2-MeOEMATE and 2-EtEMATE over 48 hours.
(§6) This experiment was performed once. A radiolabeled RNA multi-probe was synthesised (Pharmingen RiboQuant Human Apoptosis Multiprobe template set hAPO-3c) using [α^32P] UTP and […] RNA polymerase. This multi-probe template set allows simultaneous generation of several probes for detection and measurement of apoptosis related genes. […]
(§7) Total RNA was prepared using Trizol reagent (Gibco-BRL) from CAL-51 cells treated with 2-MeOEMATE or 2-EtEMATE for 0, 8, 16, 24 and 48 hrs. […] The gel was dried and analysed by phosphoimaging on the Personal Molecular Imager Fx (Biorad). Protected fragment bands corresponding to DR5 and GAPDH were quantified and expressed as a ratio of DR5/GAPDH to normalise results.

[4] = tested on: DR4 mRNA; assay: RNAse protection assay, DR4 mRNA levels in Cal51 cells; assay type: cell-based, Human; conditions: 0.5 μM, over 48 hours
Description: as §4, §5, §6, §7

[5] = tested on: caspase 3; assay: Western blot of caspase 3 activation in Cal51 cells; assay type: cell-based; conditions: Cal51 cells, 48 hours; for activation of caspase 3 compared to compound alone: 5 μM compound in combination with 250 ng/ml TRAIL; for activation of caspase 3 (reduction of unprocessed caspase 3): treatment alone, 5 μM compound or 250 ng/ml TRAIL
Description: FIG. 3. Effect of 2-MeOE2bisMATE on caspase 8 and caspase 3 activation and PARP cleavage in Cal51 cells. Western blots showing caspase 8 and caspase 3 unprocessed and active fragments and PARP uncleaved and cleaved products following treatment of Cal51 cells with solvent, 0.05, 0.5 or 5 μM 2-MeOE2bisMATE for 48 hours.
FIG. 5. Effect of 2-MeOE2bisMATE on the timing of caspase 3 and caspase 8 activation and PARP cleavage in Cal51 cells. Western blots showing caspase 3, caspase 8 and PARP unprocessed and cleaved products at 0, 8, 16, 24 and 48 hrs following treatment of Cal51 cells with 5 μM 2-MeOE2bisMATE for 48 hrs or untreated for 48 hrs (48NT).
FIG. 7. Effect of combined treatment of 2-EtEMATE or 2-MeOEMATE and TRAIL on caspase 3 activation in Cal51 cells. Western blots showing caspase 3 activation following treatment of Cal51 cells for 48 hours with solvent, 250 ng/ml TRAIL and 5 μM 2-EtEMATE or 2-MeOEMATE in the presence or absence of 250 ng/ml TRAIL. PCNA levels represent corresponding loading controls. 1, control; 2, THF solvent; 3, TRAIL; 4, 2-EtEMATE; 5,2-EtEMATE+TRAIL; 6, control; 7, THF solvent; 8, TRAIL; 9, 2-MeOEMATE; 10, 2-MeOEMATE+TRAIL
To determine whether caspases might play a role in cell death induced by 2-MeOE2bisMATE and other sulfamoylated oestrogen derivatives, we examined the expression of caspase 3, caspase 8 and PARP by immunoblotting (FIG. 3). […] Therefore, cell death induced by the 2-MeOE2bisMATE in Cal51 cells is associated with caspase activation.
There are two major pathways of apoptosis; cell surface death receptors activate caspases directly via activation of caspase 8 whereas other apoptotic stimuli operate via triggering the release of cytochrome c from mitochondria which subsequently activates caspases. Both pathways ultimately result in activation of caspase 3 and PARP cleavage. Since activation of caspase 8 is an indicator for the direct involvement of death receptors, it is important to determine whether activation of caspase 8 by 2-MeOE2bisMATE precedes or follows caspase 3 activation. We therefore performed time course experiments in Cal51 cells treated with 2-MeOE2bisMATE to order the activation events. Caspase 3 activation was first detected at 16 hours and as expected was followed by PARP cleavage at 24 hours (FIG. 5). Caspase 8 activation was a relatively late event, first detected at 48 hours. Therefore activation of caspase 3 induced by 2-MeOE2bisMATE precedes activation of caspase 8.
To further explore the mechanism for co-operation between sulfamoylated oestrones and TRAIL, we analysed activation of caspase 3 (FIG. 7). […] Therefore, sulfamoylated oestrones and TRAIL cooperate to activate caspase 3.

[6] = tested on: DR5 protein; assay: Western blot of DR5 protein levels in Cal51 cells; assay type: cell-based; conditions: 48 hours, 0.05, 0.5 and 5 μM
Description: FIG. 6. […] Western blot showing DR5 protein levels following treatment of Cal51 cells for 48 hours with 0, 0.05, 0.5 and 5 μM of 2-MeOEMATE or 2-EtEMATE. PCNA levels represent corresponding loading controls.
Protein lysates were prepared from CAL51 cells treated with various compounds and analysed for expression of DR5 by immunoblotting (FIG. 6).

[7] = target: T1, E1-STS; conditions: cited from earlier work
[8] = target: T1, E1-STS; parameters: E1-STS activity in intact MCF-7 cells; endogenous in cells; host or cells: MCF-7 cells; conditions: intact MCF-7 cells, 0.1 μM; cited from earlier work
[9] = 5 μM compound in combination with 250 ng/ml TRAIL
[10] = treatment alone, 5 μM compound or 250 ng/ml TRAIL

Molecule | cell death compared to treatment with compound alone [1] | cell death [2, 9] [%] | cell death [2, 10] [%] | DR5 mRNA levels (DR5/GAPDH) compared to untreated control [3] | DR4 mRNA levels [4] | activation of caspase 3 compared to compound alone [5] | activation of caspase 3 (reduction of unprocessed caspase 3) [5] | DR5 protein levels by western blot [6] | inhibition of the E1-STS enzyme [7] | inhibition of E1-STS activity [8] | TRAIL induced cell death ([1]; TRAIL alone (50 or 250 ng/ml))
CCc1cc2c(cc1OS(N)(=O)=O)CCC1C2CCC2(C)C(=O)CCC12 (stereo not drawn) [2-EtEMATE, 2-ethyloestrone-3-O-sulphamate] | enhanced the amount of cell death | 36 | 16 | significantly increased | did not change significantly | further enhanced | induced activation of caspase 3 | did not detect a significant increase | – | – | –
COc1cc2c(cc1OS(N)(=O)=O)CCC1C2CCC2(C)C(=O)CCC12 (stereo not drawn) [2-MeOEMATE, 2-methoxyoestrone-3-O-sulphamate] | enhanced the amount of cell death | 35 | 13 | significantly increased | did not change significantly | further enhanced | induced activation of caspase 3 | did not detect a significant increase | – | – | –
CC12CCC3c4ccc(OS(N)(=O)=O)cc4CCC3C1CCC2=O (stereo not drawn) [EMATE, oestrone-3-sulphamate] | – | – | – | – | – | – | – | – | time- and concentration-dependent manner | more than 99% | –
B1 | – | – | 12 | – | – | – | no detectable caspase 3 activation | – | – | – | resistant to TRAIL induced cell death
